Literature values in patent US20240277756A1 (NACAMED AS, priority 2021, published 2024).

Key:
[1] = oral
[2] = calculated log P values from Foye's Principles of Medicinal Chemistry, Seventh Edition (2011)

| Structure (SMILES) | absolute bioavailability (in words) [1] | log P [2] |
| --- | --- | --- |
| C[C@@H]1[C@H](O)[C@@H](C)/C=C/C=C/C=C/C=C/C=C/C=C/C=C/[C@H](O[C@@H]2O[C@H](C)[C@@H](O)[C@H](N)[C@@H]2O)C[C@@H]2O[C@](O)(C[C@@H](O)C[C@@H](O)[C@H](O)CC[C@@H](O)C[C@@H](O)CC(=O)O[C@H]1C)C[C@H](O)[C@H]2C(=O)O [amphotericin B] | very low |  |
| CCCc1nc(C)c2c(=O)nc(-c3cc(S(=O)(=O)N4CCN(CC)CC4)ccc3OCC)[nH]n12 [valdanafil] |  | 3.64 |
